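Where inhibition never reached the appropriate level, the endpoint shown equals the highest concentration tested. Otherwise, values were interpolated linearly from a five-concentration, 48-hour dose response in 96-well plates. Abbreviation: GI50, concentration required for 50% inhibition of growth.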 Active and inactive are the calls of the source. No stated cut-off is given here; in the data, active = GI50 up to about 1.1 µM and inactive = higher.
Tests used:
Assay in all cases: NCI anticancer screen, dose series, 48 h
[1] = tested on: 786-0
[2] = tested on: CCRF-CEM
[3] = tested on: SNB-75
[4] = tested on: MCF7
[5] = tested on: MOLT-4
[6] = tested on: NCI-H460
[7] = tested on: NCI-H23
[8] = tested on: UO-31
[9] = tested on: HCT-116
[10] = tested on: DU-145
[11] = tested on: MDA-MB-435
[12] = tested on: SK-OV-3
[13] = tested on: HCC 2998
[14] = tested on: A549
[15] = tested on: UACC-257
[16] = tested on: SF-539
[17] = tested on: HT-29
[18] = tested on: OVCAR-4
[19] = tested on: CAKI-1
[20] = tested on: NCI-H226

Measured: GI50

COc1ccc(-c2c3c(n(C4OC(CO)C(O)C(O)C4O)c(=S)c2C#N)CCC3)cc1 (stereo not drawn)
inactive: [1] 36 µM | [2] 32.6 µM | [3] 59.4 µM | [4] 37.6 µM | [5] 28.8 µM | [6] 45.2 µM | [7] 28.7 µM | [8] > 100 µM | [9] 49.2 µM | [10] 66.7 µM | [11] 33.3 µM | [12] 91.4 µM | [13] 66.2 µM | [14] 68.9 µM | [15] > 100 µM | [16] 20.4 µM | [17] 40.1 µM | [18] 79.1 µM | [19] > 100 µM

N/C(=N\O)N/N=C/c1ccc2c(c1)OCO2
inactive: [1] 12.9 µM | [2] 19.4 µM | [4] 28.6 µM | [5] 24.8 µM | [6] 27 µM | [7] 27 µM | [9] 21.1 µM | [10] 7.16 µM | [11] 31.4 µM | [12] 47.4 µM | [13] 35.6 µM | [14] 14.7 µM | [15] 39.5 µM | [20] 10.8 µM | [16] 27.7 µM | [17] 36.1 µM | [18] 26.4 µM | [19] 30.3 µM

COc1ccc(OC)c2c(=O)cc(-c3ccccc3)[nH]c12
inactive: [1] > 100 µM | [2] > 100 µM | [3] 93.3 µM | [4] > 100 µM | [5] > 100 µM | [6] > 100 µM | [7] > 100 µM | [8] > 100 µM | [9] > 100 µM | [10] > 100 µM | [11] > 100 µM | [12] > 100 µM | [13] > 100 µM | [14] > 100 µM | [15] > 100 µM | [20] > 100 µM | [17] > 100 µM | [18] > 100 µM

Oc1c2cc(Cl)cc1COCc1cc(Cl)cc(c1O)COCc1cc(Cl)cc(c1O)COC2
inactive: [1] 9.42 µM | [2] 9.44 µM | [3] 17.8 µM | [4] 74.3 µM | [6] 22.9 µM | [7] 20.8 µM | [8] 32.6 µM | [9] 8.13 µM | [10] 28.2 µM | [11] 40.7 µM | [12] 59.6 µM | [13] > 100 µM | [14] 34.8 µM | [15] > 100 µM | [20] 30.5 µM | [18] 23 µM

Cc1ccc(C2SCC(=O)N2NC(=O)c2ccncc2)s1 (stereo not drawn)
inactive: [1] > 100 µM | [2] > 100 µM | [4] > 100 µM | [5] > 100 µM | [7] > 100 µM | [8] > 100 µM | [9] > 100 µM | [10] > 100 µM | [11] > 100 µM | [12] > 100 µM | [13] > 100 µM | [14] > 100 µM | [15] > 100 µM | [20] > 100 µM | [16] > 100 µM | [17] > 100 µM | [18] > 100 µM | [19] > 100 µM

O=C(O)c1ccc(NS(=O)(=O)Cc2ccccc2)cc1
inactive: [1] > 100 µM | [2] > 100 µM | [3] > 100 µM | [4] > 100 µM | [5] > 100 µM | [6] > 100 µM | [7] > 100 µM | [8] > 100 µM | [9] > 100 µM | [10] > 100 µM | [11] > 100 µM | [12] > 100 µM | [13] > 100 µM | [14] > 100 µM | [15] > 100 µM | [16] > 100 µM | [17] > 100 µM | [18] > 100 µM | [19] > 100 µM

Reference: ChEMBL document CHEMBL1201862, “PubChem BioAssay data set” (2004)
